The test system of the assay is Phospho-ERK in NCI-H358 cells expressing KRas G12C. The assay is described as follows: Cellular inhibition of KRas G12C by Phospho-ERK measurement in NCI-H358 cells. It is filed as cell-based. Particulars: Homo sapiens; NCI-H358 cells, 3 hours compound treatment; read-out: IC50 (pERK(Thr202/Tyr204) normalized with GAPDH). The procedure, abridged:
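After 8–12 h attachment, NCI-H358 cells were treated with compounds for 3 h (0.5% DMSO final), fixed, methanol-permeabilized and immunostained. pERK(Thr202/Tyr204) was read by infrared imaging and normalized to GAPDH as percent of DMSO control. IC50 came from a 4-parameter fit.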

SMILES strings stand for the structures.

For `C=CC(=O)N1CCN(c2nc(OC[C@@H]3CCCN3C)nc3c2CCN(c2c(C(F)(F)F)ccc4[nH]ncc24)C3)CC1` [Example 156, (S)-1-(4-(2-((1-methylpyrrolidin-2-yl)methoxy)-7-(5-(trifluoromethyl)-1H-indazol-4-yl)-5,6,7,8-tetrahydropyrido[3,4-d]pyrimidin-4-yl)piperazin-1-yl)prop-2-en-1-one], the IC50 lay within 0.001 to 1 µM.
For `C=CC(=O)N1CCN(c2nc(OC[C@@H]3CCCN3C)nc3c2CCN(c2ccccc2Cl)C3)CC1CC#N` (stereo partly drawn) [Example 229, 2-(1-acryloyl-4-(7-(2-chlorophenyl)-2-(((S)-1-methylpyrrolidin-2-yl)methoxy)-5,6,7,8-tetrahydropyrido[3,4-d]pyrimidin-4-yl)piperazin-2-yl)acetonitrile], the IC50 was in the range of 0.001 to 1 µM.
In the case of `C=CC(=O)N1CCN(c2nc(OC[C@@H]3CCN(C)C3)nc3c2CCN(c2cc(O)cc4ccccc24)C3)CC1` [Example 110, (R)-1-(4-(7-(3-hydroxynaphthalen-1-yl)-2-((1-methylpyrrolidin-3-yl)methoxy)-5,6,7,8-tetrahydropyrido[3,4-d]pyrimidin-4-yl)piperazin-1-yl)prop-2-en-1-one] it was 0.001 to 1 µM; in that of `C=CC(=O)N1CCN(c2nc(O[C@H](C)[C@H]3CCCN3C)nc3c2CCN(c2cc(O)cc4ccccc24)C3)CC1` [Example 129, 1-[4-[7-(3-hydroxy-1-naphthyl)-2-[(1R)-1-[(2R)-1-methylpyrrolidin-2-yl]ethoxy]-6,8-dihydro-5H-pyrido[3,4-d]pyrimidin-4-yl]piperazin-1-yl]prop-2-en-1-one], 0.001 to 1 µM; in that of `C=CC(=O)N1CCN(c2nc(O[C@H](C)CN3CCOCC3)nc3c2CCN(c2cc(O)cc4ccccc24)C3)CC1` [Example 56, (R)-1-(4-(7-(3-hydroxynaphthalen-1-yl)-2-((1-morpholinopropan-2-yl)oxy)-5,6,7,8-tetrahydropyrido[3,4-d]pyrimidin-4-yl)piperazin-1-yl)prop-2-en-1-one], 0.001 to 1 µM.
To `C=CC(=O)N1CCN(c2nc(OC[C@@H]3CCCN3CC)nc3c2CCN(c2cccc4ccccc24)C3)CC1CC#N` (stereo partly drawn) [Example 233, 2-(1-acryloyl-4-(2-(((S)-1-ethylpyrrolidin-2-yl)methoxy)-7-(naphthalen-1-yl)-5,6,7,8-tetrahydropyrido[3,4-d]pyrimidin-4-yl)piperazin-2-yl)acetonitrile] belongs 0.001 to 1 µM; to `C=CC(=O)N1CCN(c2nc(OCC3CN(C)CCO3)nc3c2CCN(c2cc(O)cc4ccccc24)C3)CC1` (stereo not shown) [Example 193, 1-(4-(7-(3-hydroxynaphthalen-1-yl)-2-((4-methylmorpholin-2-yl)methoxy)-5,6,7,8-tetrahydropyrido[3,4-d]pyrimidin-4-yl)piperazin-1-yl)prop-2-en-1-one], 0.001 to 1 µM.
Turning to `C=CC(=O)N1CCN(c2nc(OC[C@@H]3CCN(C)C3)nc3c2CCN(c2cc(O)cc4ccccc24)C3)CC1CC#N` (stereo partly drawn) [Example 179, 2-[4-[7-(3-hydroxy-1-naphthyl)-2-[[(3R)-1-methylpyrrolidin-3-yl]methoxy]-6,8-dihydro-5H-pyrido[3,4-d]pyrimidin-4-yl]-1-prop-2-enoyl-piperazin-2-yl]acetonitrile], the IC50 fell in the range of 0.001 to 1 µM.
To `C=CC(=O)N1CCN(c2nc(OCC3CCN(CCOC)C3)nc3c2CCN(c2cc(O)cc4ccccc24)C3)CC1` (stereo not shown) [Example 103, 1-(4-(7-(3-hydroxynaphthalen-1-yl)-2-((1-(2-methoxyethyl)pyrrolidin-3-yl)methoxy)-5,6,7,8-tetrahydropyrido[3,4-d]pyrimidin-4-yl)piperazin-1-yl)prop-2-en-1-one] belongs 0.001 to 1 µM; to `C=CC(=O)N1CCN(c2nc(OCCN3CCCCC3)nc3c2CCN(c2cc(O)cc4ccccc24)C3)CC1` [Example 52, 1-[4-[7-(3-hydroxy-1-naphthyl)-2-[2-(1-piperidyl)ethoxy]-6,8-dihydro-5H-pyrido[3,4-d]pyrimidin-4-yl]piperazin-1-yl]prop-2-en-1-one], 0.001 to 1 µM.
For the compound `C=CC(=O)N1CCN(c2nc(OCCCN3C[C@@H]4C[C@H]3CO4)nc3c2CCN(c2cc(O)cc4ccccc24)C3)CC1` [Example 104, 1-(4-(2-(3-((1S,4S)-2-oxa-5-azabicyclo[2.2.1]heptan-5-yl)propoxy)-7-(3-hydroxynaphthalen-1-yl)-5,6,7,8-tetrahydropyrido[3,4-d]pyrimidin-4-yl)piperazin-1-yl)prop-2-en-1-one], the IC50 fell in the range of 0.001 to 1 µM.
In the case of `C=CC(=O)N1CCN(c2nc(OCCCN3CCCC3)nc3c2CCN(c2cc(O)cc4ccccc24)C3)CC1` [Example 39, 1-(4-(7-(3-hydroxynaphthalen-1-yl)-2-(3-(pyrrolidin-1-yl)propoxy)-5,6,7,8-tetrahydropyrido[3,4-d]pyrimidin-4-yl)piperazin-1-yl)prop-2-en-1-one] it was 0.001 to 1 µM; in that of `C=CC(=O)N1CCN(c2nc(OCCCN3CCCOCC3)nc3c2CCN(c2cc(O)cc4ccccc24)C3)CC1` [Example 101, 1-(4-(2-(3-(1,4-oxazepan-4-yl)propoxy)-7-(3-hydroxynaphthalen-1-yl)-5,6,7,8-tetrahydropyrido[3,4-d]pyrimidin-4-yl)piperazin-1-yl)prop-2-en-1-one], 0.001 to 1 µM; in that of `C=CC(=O)N1CCN(c2nc(OCCN(CC)CC)nc3c2CCN(c2cc(O)cc4ccccc24)C3)CC1` [Example 102], 0.001 to 1 µM.
On to `C=CC(=O)N1CCN(c2nc(OC[C@H]3CCCN3C)nc3c2CCN(c2cc(O)cc4ccccc24)C3)[C@@H](C)C1` [Example 203, 1-((S)-4-(7-(3-hydroxynaphthalen-1-yl)-2-(((R)-1-methylpyrrolidin-2-yl)methoxy)-5,6,7,8-tetrahydropyrido[3,4-d]pyrimidin-4-yl)-3-methylpiperazin-1-yl)prop-2-en-1-one], for which the IC50 fell in the range of 0.001 to 1 µM.
On to `C=CC(=O)N1CCN(c2nc(OC[C@@H]3CCCN3C)nc3c2CCN(c2ccccc2F)C3)CC1CC#N` (stereo partly drawn) [Example 227, 2-(1-acryloyl-4-(7-(2-fluorophenyl)-2-(((S)-1-methylpyrrolidin-2-yl)methoxy)-5,6,7,8-tetrahydropyrido[3,4-d]pyrimidin-4-yl)piperazin-2-yl)acetonitrile], for which the IC50 is 0.001 to 1 µM.
On to `C=CC(=O)N1CCN(c2nc(OC[C@@H]3CCCN3C)nc3c2CCN(c2ccc(F)cc2C(F)(F)F)C3)CC1CC#N` (stereo partly drawn) [Example 276, 2-(1-acryloyl-4-(7-(4-fluoro-2-(trifluoromethyl)phenyl)-2-(((S)-1-methylpyrrolidin-2-yl)methoxy)-5,6,7,8-tetrahydropyrido[3,4-d]pyrimidin-4-yl)piperazin-2-yl)acetonitrile], for which the IC50 lay in the range of 0.001 to 1 µM.
On to `C=CC(=O)N1CCN(c2nc(O[C@H](C)CN(C)C)nc3c2CCN(c2cc(O)cc4ccccc24)C3)[C@@H](C)C1` [Example 115, 1-((S)-4-(2-(((R)-1-(dimethylamino)propan-2-yl)oxy)-7-(3-hydroxynaphthalen-1-yl)-5,6,7,8-tetrahydropyrido[3,4-d]pyrimidin-4-yl)-3-methylpiperazin-1-yl)prop-2-en-1-one], for which the IC50 fell in the range of 0.001 to 1 µM.
To `C=CC(=O)N1CCN(c2nc(OCCN3C[C@@H]4CC[C@H]3C4)nc3c2CCN(c2cc(O)cc4ccccc24)C3)CC1` [Example 77, 1-(4-(2-(2-((1S,4R)-2-azabicyclo[2.2.1]heptan-2-yl)ethoxy)-7-(3-hydroxynaphthalen-1-yl)-5,6,7,8-tetrahydropyrido[3,4-d]pyrimidin-4-yl)piperazin-1-yl)prop-2-en-1-one] belongs 0.001 to 1 µM.
To `C=CC(=O)N1CCN(c2nc(OCCN(C)C)nc3c2CCN(c2cc(O)cc4ccccc24)C3)C[C@@H]1CC#N` [Example 176, 2-[(2S)-4-[2-[2-(dimethylamino)ethoxy]-7-(3-hydroxy-1-naphthyl)-6,8-dihydro-5H-pyrido[3,4-d]pyrimidin-4-yl]-1-prop-2-enoyl-piperazin-2-yl]acetonitrile] belongs 0.001 to 1 µM.
To `C=CC(=O)N1CCN(c2nc(OCCN3CCC(C)CC3)nc3c2CCN(c2cc(O)cc4ccccc24)C3)CC1` [Example 92, 1-(4-(7-(3-hydroxynaphthalen-1-yl)-2-(2-(4-methylpiperidin-1-yl)ethoxy)-5,6,7,8-tetrahydropyrido[3,4-d]pyrimidin-4-yl)piperazin-1-yl)prop-2-en-1-one] belongs 0.001 to 1 µM; to `C=CC(=O)N1CCN(c2nc(OC[C@@H]3CCCN3C)nc3c2CCN(c2cc(O)cc4ccccc24)C3)[C@@H](C)C1` [Example 202, 1-((S)-4-(7-(3-hydroxynaphthalen-1-yl)-2-(((S)-1-methylpyrrolidin-2-yl)methoxy)-5,6,7,8-tetrahydropyrido[3,4-d]pyrimidin-4-yl)-3-methylpiperazin-1-yl)prop-2-en-1-one], 0.001 to 1 µM.
On to `C=CC(=O)N1CCN(c2nc(OC[C@@H]3CCCN3C)nc3c2CCN(c2c(F)cccc2C(F)(F)F)C3)CC1CC#N` (stereo partly drawn) [Example 275, 2-(1-acryloyl-4-(7-(2-fluoro-6-(trifluoromethyl)phenyl)-2-(((S)-1-methylpyrrolidin-2-yl)methoxy)-5,6,7,8-tetrahydropyrido[3,4-d]pyrimidin-4-yl)piperazin-2-yl)acetonitrile], for which the IC50 fell in the range of 0.001 to 1 µM.
On to `C=CC(=O)N1CCN(c2nc(OCCN3CCC[C@H](F)C3)nc3c2CCN(c2cc(O)cc4ccccc24)C3)CC1` [Example 111, (S)-1-(4-(2-(2-(3-fluoropiperidin-1-yl)ethoxy)-7-(3-hydroxynaphthalen-1-yl)-5,6,7,8-tetrahydropyrido[3,4-d]pyrimidin-4-yl)piperazin-1-yl)prop-2-en-1-one], for which the IC50 was in the range of 0.001 to 1 µM.
In the case of `C=CC(=O)N1CCN(c2nc(OC[C@@H]3CCCN3C)nc3c2CCN(c2cc(O)cc4ccccc24)C3)C(CO)C1` (stereo partly drawn) [Example 169, 1-[3-(hydroxymethyl)-4-[7-(3-hydroxy-1-naphthyl)-2-[[(2S)-1-methylpyrrolidin-2-yl]methoxy]-6,8-dihydro-5H-pyrido[3,4-d]pyrimidin-4-yl]piperazin-1-yl]prop-2-en-1-one] it was 0.001 to 1 µM.
